ChEMBL document CHEMBL3507680, “University of Dundee, Gates Library screen for HepG2 cell viability”

Experiment: Human HepG2 cell viability assay in 384 well format
Format: toxicity, cell-based
Design: dose 125 nL, time 70.5 hour; concentration not given beside the values
Details: HepG2 cells, read-out: Inhibition

Structure (SMILES) | cytotoxicity at 70.5 h [%]
COC(=O)NCCC(=O)NC(C)Cc1ccccc1Br (configuration not stated) | -7.4
Cc1ccc(N(CCC#N)C(=O)CN2CCCC2c2cccs2)cc1 (configuration not stated) | -2.42
CCCn1[nH]cc/c1=N\C(=O)CN1CCCC1Cn1cc(C)cn1 (configuration not stated) | -4.99
CC(CS(C)(=O)=O)N(C(=O)Nc1cc(F)ccc1Cl)C1CC1 (configuration not stated) | 2.35
CCc1ccc(CNC(=O)CCNc2ncccn2)s1 | -13.5
O=C(CCNc1ncccn1)NCc1ccc(Br)s1 | -11.3
CCc1ccc(CNC(=O)CCNS(=O)(=O)c2cn(C)c(C)n2)s1 | -7.93
O=C(CN1C=Nc2ccccc2S1(=O)=O)NC1CCCCC1 | 3.38
O=C(c1cc(C2CC2)[nH]n1)N1CCCN(c2nccs2)CC1 | -5.32
CC(NC(=O)CN1C=Nc2ccccc2S1(=O)=O)C1CC1 (configuration not stated) | 11
Cc1csc(N2CCN(C(=O)c3cc(C4CC4)[nH]n3)CC2)n1 | -5.91
CCCc1nc(C)c(C(=O)NCc2ccc(C)n2C)s1 | 17.6
Cc1cnn(CCC(=O)NS(=O)(=O)N2CCCc3ccccc32)c1 | -5.92
Cc1cnn(CCC(=O)NS(=O)(=O)N2CCc3ccccc32)c1 | -8.38
Cc1c(Br)cccc1C(=O)NCc1cnn(C)c1 | 2.04
Cc1c(NC(C)C(C)C)cccc1C(=O)NCc1nccn1C (configuration not stated) | -3.37
O=C(CC1=CCCCC1)NCc1ccnc(OC2CCOCC2)c1 | -6.35
CCOC(=O)c1ccc(CNC(=O)c2ccc(C)nc2)o1 | 11
Cc1cc(C(=O)OCC2CCCN2C(N)=O)c(C)o1 (configuration not stated) | -6.63
COc1ccccc1CC1CCN(C(=O)CCc2ccccn2)CC1 | -8.07
CCOC(=O)c1ccc(CNC(=O)c2ccncc2Cl)o1 | -7.26
Cc1nc(C(C)C)sc1C(=O)N(C)Cc1cnn(C)c1 | 14.2
COc1ccccc1CC1CCCN(CCN2CCOC2=O)C1 (configuration not stated) | -7.17
O=C(CS(=O)(=O)c1ccc(Cl)cc1)NC1CCCc2ccccc21 (configuration not stated) | 1.89

Structure (SMILES) | cytotoxicity at 70.5 h [%]
Cc1noc(C)c1C(=O)NCCN1CCN(c2ccccc2)CC1 | 1.76
CS(=O)(=O)NC1CCCN(C(=O)Nc2cccnc2N2CCCC2)C1 (configuration not stated) | 0.921
COCCn1nc(C(=O)N(C)Cc2ccc3ccccc3c2)ccc1=O | -0.954
Cc1ccsc1C(=O)N1CCC(Nc2cccnc2)CC1 | -4.2
COCCOc1ccc(NC(=O)N2CCOC(C(N)=O)C2)cc1F (configuration not stated) | 25.8
CC(C)c1nnc2n1CCN(C(=O)c1cn(-c3ccccc3)nn1)C2 | -6.83
N#CCSCCCN1CCN(C(=O)c2cccc(Cl)c2)CC1 | 2.68
COCCn1nc(C(=O)N(C)Cc2cccnc2)ccc1=O | 4.23
COCCNC(=O)CN(C)CCn1nc2ccccn2c1=O | -5.55
COC(=O)C(C)(C)NC(=O)C1CC(=O)N(C2CC2)C1 (configuration not stated) | -6.5
CCOC(=O)N1CCN(C(=O)c2cc(-c3ccccc3F)on2)CC1 | -0.971
O=C(NCc1cccnc1)NC1CCCN(c2ncccn2)C1 (configuration not stated) | -10.3
O=C(NCc1cccc(F)c1)NC1CCCN(c2ncccn2)C1 (configuration not stated) | -9.75
N#Cc1ccc(CNC(=O)NC2CCCN(c3ncccn3)C2)cc1 (configuration not stated) | -9.27
Cc1ccc(CNC(=O)NC2CCCN(c3ncccn3)C2)n1C (configuration not stated) | -8.01
CN(C)C(=O)Cc1ccc(NC(=O)NC2CCCC2)cc1 | -7.5
CC(C)CN1CCN(C(=O)c2cc(=O)c3ccccc3[nH]2)CC1 | -2.68
COCc1ccccc1NC(=O)NCc1ccc(OCC2CC2)nc1 | -7.17
O=C(NCc1ccc(OCC2CC2)nc1)Nc1c(F)cccc1F | -2.96
Cc1nn(CC(=O)N2CCCN(c3cccnn3)CC2)c(C)c1Cl | 0.771
Cc1nc(CC(=O)N2CCN(Cc3ccc(C#N)cc3)CC2)cs1 | -1.78
CCOc1ccc(S(=O)(=O)NC(=O)c2c(C)noc2C(C)C)cc1 | 1.8
Cc1ccc(CCCC(=O)N(C)CCN2CCOCC2)cc1 | 13.8
